The source of these data is patent publication EP2964612B1, “P[…] AND THEIR USE AS FLUORESCENT LABELS” (Illumina Cambridge Limited, priority 2013, dated 2014).

In this experiment the target is T1, Pol 957 EA (Thermococcus sp., UniProt Q56366).
T1 sequence (Q56366 1-775): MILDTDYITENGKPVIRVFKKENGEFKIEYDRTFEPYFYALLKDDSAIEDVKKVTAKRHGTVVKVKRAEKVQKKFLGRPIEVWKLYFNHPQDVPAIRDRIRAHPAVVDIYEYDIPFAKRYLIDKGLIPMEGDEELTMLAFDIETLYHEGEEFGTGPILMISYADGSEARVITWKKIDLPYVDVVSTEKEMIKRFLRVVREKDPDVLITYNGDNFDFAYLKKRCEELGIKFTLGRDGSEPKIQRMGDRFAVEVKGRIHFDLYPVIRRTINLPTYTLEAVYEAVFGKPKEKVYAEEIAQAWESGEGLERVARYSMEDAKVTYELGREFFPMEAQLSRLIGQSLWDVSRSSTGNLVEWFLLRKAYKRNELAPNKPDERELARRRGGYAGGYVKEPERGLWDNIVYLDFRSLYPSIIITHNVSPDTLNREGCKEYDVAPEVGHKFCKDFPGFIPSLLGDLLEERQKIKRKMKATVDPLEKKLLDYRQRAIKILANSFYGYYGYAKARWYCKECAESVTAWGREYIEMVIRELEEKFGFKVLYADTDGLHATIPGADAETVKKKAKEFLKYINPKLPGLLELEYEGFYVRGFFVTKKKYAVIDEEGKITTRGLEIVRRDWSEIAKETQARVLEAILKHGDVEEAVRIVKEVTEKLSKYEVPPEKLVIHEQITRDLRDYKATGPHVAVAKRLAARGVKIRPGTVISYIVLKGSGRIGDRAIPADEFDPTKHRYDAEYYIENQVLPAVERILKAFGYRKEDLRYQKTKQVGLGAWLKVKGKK
Put plainly: Binding affinity of labelled 3'-azidomethylthymidine triphosphates to the polymerase (Table 2).

Structures are written as SMILES. pKd: −log10 of the molar value.

In the case of `Cc1cn([C@H]2C[C@H](OCN=[N+]=[N-])[C@@H](COP(=O)(O)OP(=O)(O)OP(=O)(O)O)O2)c(=O)[nH]c1=O` [Dark ffT], the pKd (in general, the negative decadic logarithm of the Kd, by convention in mol/L) was 6.26.
